For assay [1], the target named is HCAR3 (Homo sapiens, UniProt P49019). The note with it: literature value; read-out: EC50 at HCAR3 observed by Colosimo et al.; cited from earlier work.
Assay [2] concerns the target T1, ADORA2A (Homo sapiens, UniProt P29274).
T1 construct: expressed in transfected cells; host or cells: Saccharomyces cerevisiae BY4741-derived GPCR-Gα reporter strains, X-2 landing pad
Kind of assay: dCyFIRscreen profiling and titrations in yeast GPCR-Gα reporter strains. The format is cell-based.
Method: (§1) Individual Gα reporter strains were grown in SCD LoFo pH=7.0 at 30° C. to an OD=1.0 in a 2.0 mL 96-well DeepWell block (Greiner; 780271-FD). Cells were normalized to an OD of 0.1 in SCD LoFo pH=7.0 using a Biomek NXp liquid-handling robot. 10× ligand/vehicle stocks were prepared (see Table 2) and 4 μL were distributed to each well of a 384-well plate (Greiner; 781096) in quadruplicate using a Biomek NXp. 36 μL normalized cells were distributed to each well containing the appropriate 10× ligand/vehicle. Plates were sealed with a breathable cover (Diversified Biotech; BERM-2000) and incubated at 30° C. Fluorescence readings were collected after 18 hours using a plate reader (ClarioStar, BMG LabTech, Offenburg, Germany) (bottom read, 10 flashes/well, excitation filter: 430-10 nm, dichroic filter: LP 458 nm, emission filter: 482-16 nm, gain=1300 (1500 for FIG. 1B.)). Absorbance readings were also collected after 18 hours using the same instrument (22 flashes/well, excitation filter: 600 nm).
(§2) All titration curves were analyzed using Prism software and the pharmacological fitting function log(agonist) vs. response—Variable slope (four parameters) (GraphPad Software, San Diego, USA).

Assay [3] concerns the target T2, GPR35 (Homo sapiens, UniProt Q9HC97).
T2 construct: expressed in transfected cells; host or cells: Saccharomyces cerevisiae BY4741-derived GPCR-Gα reporter strains, X-2 landing pad
The assay is described as above. In kind it is cell-based.
Method: as §1, §2

For assay [4], the target named is T3, GPR68 (Homo sapiens, UniProt Q15743).
T3 construct: expressed in transfected cells; host or cells: Saccharomyces cerevisiae BY4741-derived GPCR-Gα reporter strains, X-2 landing pad
Described as above. In kind it is cell-based.
Method: as §1, §2

Assay [5] addresses T4, GPR65 (Homo sapiens, UniProt Q8IYL9).
T4 construct: expressed in transfected cells; host or cells: Saccharomyces cerevisiae BY4741-derived GPCR-Gα reporter strains, X-2 landing pad
The description is as above. The format is cell-based.
Method: as §1, §2

Assay [6] deals with T5, CNR2 (Homo sapiens, UniProt P34972).
T5 construct: expressed in transfected cells; host or cells: Saccharomyces cerevisiae BY4741-derived GPCR-Gα reporter strains, X-2 landing pad
Kind of assay: dCyFIRscreen profiling in yeast GPCR-Gα reporter strains. In kind it is cell-based.
Method: as §1

The values that follow come from patent US20230053864A1, “Methods for Identifying Modulators of G Protein-Coupled Receptors” (University of Miami, priority 2019, published 2023).

“Also recorded” adds a separate entry of the source.

T4 sequence (Q8IYL9 whole entry): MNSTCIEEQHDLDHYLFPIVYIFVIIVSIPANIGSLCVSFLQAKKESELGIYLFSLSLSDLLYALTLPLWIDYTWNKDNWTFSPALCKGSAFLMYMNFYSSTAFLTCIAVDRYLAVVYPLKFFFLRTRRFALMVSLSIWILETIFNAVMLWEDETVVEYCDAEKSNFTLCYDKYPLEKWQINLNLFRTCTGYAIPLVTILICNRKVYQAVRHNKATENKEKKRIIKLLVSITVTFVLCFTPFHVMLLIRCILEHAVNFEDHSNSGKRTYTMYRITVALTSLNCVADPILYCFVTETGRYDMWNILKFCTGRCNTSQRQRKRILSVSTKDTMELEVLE
T3 sequence (Q15743 whole entry): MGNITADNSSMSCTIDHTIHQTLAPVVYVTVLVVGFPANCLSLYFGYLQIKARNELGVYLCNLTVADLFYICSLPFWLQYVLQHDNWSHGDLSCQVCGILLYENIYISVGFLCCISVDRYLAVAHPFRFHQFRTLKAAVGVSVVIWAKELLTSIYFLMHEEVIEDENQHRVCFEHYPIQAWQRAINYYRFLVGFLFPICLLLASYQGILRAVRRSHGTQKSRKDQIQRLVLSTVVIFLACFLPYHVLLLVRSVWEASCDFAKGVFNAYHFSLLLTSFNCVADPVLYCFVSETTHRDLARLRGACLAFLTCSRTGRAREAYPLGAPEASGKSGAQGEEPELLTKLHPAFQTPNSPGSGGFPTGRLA
T2 sequence (Q9HC97 whole entry): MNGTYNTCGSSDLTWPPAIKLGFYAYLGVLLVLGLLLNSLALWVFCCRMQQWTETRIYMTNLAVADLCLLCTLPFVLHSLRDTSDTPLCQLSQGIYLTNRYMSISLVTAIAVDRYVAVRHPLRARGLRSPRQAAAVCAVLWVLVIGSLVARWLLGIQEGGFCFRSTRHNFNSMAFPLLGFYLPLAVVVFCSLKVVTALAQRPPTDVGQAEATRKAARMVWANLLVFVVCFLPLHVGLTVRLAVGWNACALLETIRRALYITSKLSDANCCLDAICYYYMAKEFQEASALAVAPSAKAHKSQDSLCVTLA
T1 sequence (P29274 whole entry): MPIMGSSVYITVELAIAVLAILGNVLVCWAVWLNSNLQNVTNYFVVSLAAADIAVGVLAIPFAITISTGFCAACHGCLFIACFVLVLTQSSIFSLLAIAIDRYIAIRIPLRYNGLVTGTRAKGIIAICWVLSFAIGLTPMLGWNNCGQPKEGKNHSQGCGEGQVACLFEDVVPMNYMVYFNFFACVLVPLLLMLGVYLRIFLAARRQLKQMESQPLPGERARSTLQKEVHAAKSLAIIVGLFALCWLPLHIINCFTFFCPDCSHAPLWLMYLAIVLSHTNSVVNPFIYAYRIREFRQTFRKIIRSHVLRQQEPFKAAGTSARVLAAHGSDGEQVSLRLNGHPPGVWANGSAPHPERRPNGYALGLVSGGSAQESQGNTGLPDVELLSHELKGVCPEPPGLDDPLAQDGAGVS
Sequence of HCAR3 (P49019 whole entry): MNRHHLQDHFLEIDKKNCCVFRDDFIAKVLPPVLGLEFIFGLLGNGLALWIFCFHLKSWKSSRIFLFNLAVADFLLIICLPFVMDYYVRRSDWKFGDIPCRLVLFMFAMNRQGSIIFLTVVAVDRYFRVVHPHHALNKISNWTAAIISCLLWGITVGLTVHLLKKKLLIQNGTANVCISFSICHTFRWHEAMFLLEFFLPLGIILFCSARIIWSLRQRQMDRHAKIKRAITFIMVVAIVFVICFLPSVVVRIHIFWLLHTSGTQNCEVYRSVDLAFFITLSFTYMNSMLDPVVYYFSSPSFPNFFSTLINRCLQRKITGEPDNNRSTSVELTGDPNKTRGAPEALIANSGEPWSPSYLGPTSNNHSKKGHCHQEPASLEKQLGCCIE
T5 sequence (P34972 whole entry): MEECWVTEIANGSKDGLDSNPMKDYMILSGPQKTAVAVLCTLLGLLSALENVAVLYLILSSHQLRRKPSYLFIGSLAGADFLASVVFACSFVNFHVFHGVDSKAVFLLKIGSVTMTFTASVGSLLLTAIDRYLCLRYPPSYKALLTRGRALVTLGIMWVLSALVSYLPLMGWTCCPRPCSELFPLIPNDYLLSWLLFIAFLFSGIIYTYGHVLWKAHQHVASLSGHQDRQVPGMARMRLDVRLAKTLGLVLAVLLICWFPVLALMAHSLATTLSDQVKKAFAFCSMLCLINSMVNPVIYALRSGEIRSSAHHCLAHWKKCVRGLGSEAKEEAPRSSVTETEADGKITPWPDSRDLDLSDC

A word on the EC50: it is the midpoint of the concentration-response curve. Consider `O=C(O)CCc1ccccc1` [phenylpropanoic acid], for which the half-maximal effective concentration (EC50) in assay [1] was 208 µM.
`O[C@H]1[C@H](O)[C@@H](O)[C@H](O)[C@@H](O)[C@H]1O` [inositol]: in assay [2], the “activity at ADORA2A in words (mode of action)” value is on record as “increase receptor signaling; also recorded: NAM-agonist”. Further, the “activity at GPR35 in words (mode of action, potency range)” value in assay [3] is listed as “increase receptor signaling; also recorded: PAM-agonist”. For the same compound, the “activity at GPR68 in words (mode of action)” value in assay [4] was “increase receptor signaling and PAM-agonist and PAMs”. Further, the “activity at GPR65 in words (mode of action)” value in assay [5] is “increase receptor signaling and PAM-agonist and PAMs”. Also, in assay [6], the “activity at CNR2 in words (mode of action)” value is recorded as “increase receptor signaling”.
